Laboratory results from publication PMC8899516, “Structure-Activity Relationship Studies of 4-((4-(2-fluorophenyl)piperazin-1-yl)methyl)-6-imino-N-(naphthalen-2-yl)-1,3,5-triazin-2-amine (FPMINT) Analogues as Inhibitors of Human Equilibrative Nucleoside Transporters” (Frontiers in Pharmacology, 2022).

Experiments:
ENT1 = molecular target: T1, ENT1 (Homo sapiens, UniProt Q99808); experiment: Kinetic study of [3H]uridine uptake in PK15NTD/ENT1 cells; format: cell-based
T1 construct: expressed in transfected cells
T1 sequence (Q99808 1-456): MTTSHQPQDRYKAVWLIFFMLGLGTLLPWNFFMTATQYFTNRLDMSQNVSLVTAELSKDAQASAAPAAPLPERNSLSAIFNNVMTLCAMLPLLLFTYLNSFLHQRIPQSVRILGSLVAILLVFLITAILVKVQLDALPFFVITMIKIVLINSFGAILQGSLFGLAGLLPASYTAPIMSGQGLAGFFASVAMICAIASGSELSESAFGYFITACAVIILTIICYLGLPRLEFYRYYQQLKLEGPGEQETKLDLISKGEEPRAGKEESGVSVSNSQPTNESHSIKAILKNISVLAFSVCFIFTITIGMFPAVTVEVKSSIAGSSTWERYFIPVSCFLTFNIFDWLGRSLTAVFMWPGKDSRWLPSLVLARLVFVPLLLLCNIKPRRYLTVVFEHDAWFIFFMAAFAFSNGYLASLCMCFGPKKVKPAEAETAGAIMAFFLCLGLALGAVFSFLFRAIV
Method: (§1) Nucleoside transporter-deficient porcine kidney fibroblast cells (PK15NTD) stably transfected with cloned human ENT1 or ENT2 ([Ward et al., 2000]) were used as the in vitro models. The cells were cultured in Dulbecco’s Modified Eagle’s Medium (DMEM) supplemented with 10% (v/v) foetal bovine serum, 0.5 mg/ml geneticin, 100 units/ml penicillin, 100 μg/ml streptomycin and 0.25 μg/ml of amphotericin B at 37°C in 5% CO2/95% air.
(§2) Confluent monolayers of PK15NTD/ENT1 and PK15NTD/ENT2 cells in 24-well plates were washed thrice with HEPES-buffered Ringer’s solution containing (mM): 135 NaCl, 10 glucose, 5 KCl, 5 HEPES, 3.33 NaH2PO4, 1.0 CaCl2, 1.0 MgCl2, 0.83 Na2HPO4; pH 7.4. The cells were incubated with different concentrations of FPMINT analogues (from 10 nM to 100 μM) containing [^3H]uridine (2 μCi/ml, 1 μM) for 1 min. Passive uridine uptake was determined by incubating the cells in HEPES-buffered Ringer’s solution containing [^3H]uridine in the presence of 0.5 mM NBMPR. The cells were rapidly washed five times with ice-cold phosphate-buffered saline (PBS). After air-drying, the cells were solubilised by overnight incubation in 500 μl of 5% Triton-X100. Next, 300 μl of the cell lysates were mixed with 2 ml of scintillation liquid. The radioactivity of each sample was quantified by a scintillation counter. The protein content in each well was determined spectrophotometrically using a commercial bicinchoninic acid assay (Pierce Biochemicals, Rockford, IL). Uptake values were expressed as picomoles of [^3H]uridine per milligram of cellular protein per minute.
(§3) All data were analysed by GraphPad Prism software (San Diego, CA, United States). Data are expressed as mean ± standard error (SE) of three experiments performed in triplicate. The IC50 values were determined from the dose-response curves fitted with a logistic function. For the kinetic study of [^3H]uridine uptake, apparent K m and V max values were determined from the Michaelis-Menten equation, and K i was determined from the X-intercept of linear regression. Analysis of variance and Student’s t-test were performed for multiple and paired variables, respectively. p values of <0.05 were considered to be statistically significant.
(§4) Compound 3c was selected for further investigation. The kinetic study of [^3H]uridine transport was performed by measuring the concentration-dependent uptake of [^3H]uridine. This study could provide clue about the mode of action of compound 3c. The uptake of [^3H]uridine by ENT1 and ENT2 was saturable and conformed to Michaelis-Menten kinetics. Compound 3c decreased the V max of ENT1 but had no effect on K m . […] The slopes of the linear 1/V versus 1/[S] plots increased with the concentration of compound 3c (Figure 4B).
(§5) FIGURE 4 Competitive inhibition of ENT1 and ENT2 by compound 3c. Kinetic study of [^3H]uridine uptake (0.1 μM–1 mM) was measured in (A) PK15NTD/ENT1 and (D) PK15NTD/ENT2 cells in the presence of various concentrations of compound 3c (0, 0.01, 0.1, 1 and 10 µM) (B,E) 1/V versus 1/[S] plots of each curve in (A) and (D), respectively (C,F) The plot of slopes of each line in (B) and (E), respectively, versus the concentration of compound 3c. Data are presented as mean ± SE of three experiments.

ENT2 = molecular target: T2, ENT2 (Homo sapiens, UniProt Q14542); experiment: Kinetic study of [3H]uridine uptake in PK15NTD/ENT2 cells; format: cell-based
T2 construct: expressed in transfected cells
T2 sequence (Q14542 1-456): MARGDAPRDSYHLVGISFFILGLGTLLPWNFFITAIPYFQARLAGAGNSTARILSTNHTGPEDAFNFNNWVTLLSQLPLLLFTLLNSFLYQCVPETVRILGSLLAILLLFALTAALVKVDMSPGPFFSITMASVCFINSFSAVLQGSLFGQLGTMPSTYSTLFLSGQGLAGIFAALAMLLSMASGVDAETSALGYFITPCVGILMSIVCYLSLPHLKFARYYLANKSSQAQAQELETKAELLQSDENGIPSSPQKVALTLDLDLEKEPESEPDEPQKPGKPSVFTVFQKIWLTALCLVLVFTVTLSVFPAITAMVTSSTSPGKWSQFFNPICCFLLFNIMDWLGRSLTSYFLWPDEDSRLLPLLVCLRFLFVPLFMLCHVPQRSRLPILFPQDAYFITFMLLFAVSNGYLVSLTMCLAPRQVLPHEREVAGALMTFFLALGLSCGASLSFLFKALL
Method: as §1, §2, §3, §4, §5

[1] = decreased Vmax, apparent Km unchanged
[2] = x-intercept of slopes versus concentration plot

Compound: Cc1cccc(Nc2nc(N)nc(CN3CCN(c4ccc(F)cc4)CC3)n2)c1 [Compound 3c]
- apparent Vmax of ENT1 (ENT1; 0.01 µM compound 3c): 2083 ± 36.80 pmol/mg protein/min
- apparent Vmax of ENT1 (ENT1; 0.1 µM compound 3c): 1867 ± 27.63 pmol/mg protein/min
- apparent Vmax of ENT1 (ENT1; 1 µM compound 3c): 1377 ± 37.81 pmol/mg protein/min
- apparent Vmax of ENT1 (ENT1; 10 µM compound 3c): 732.9 ± 12.02 pmol/mg protein/min
- mode of inhibition of ENT1-mediated uridine transport (ENT1; [1]): non-competitive inhibitor
- Ki (ENT1; [2]): 2790 nM
- apparent Vmax of ENT2 (ENT2; 0.01 µM compound 3c): 1775 ± 76.83 pmol/mg protein/min
- apparent Vmax of ENT2 (ENT2; 0.1 µM compound 3c): 1295 ± 78.09 pmol/mg protein/min
- apparent Vmax of ENT2 (ENT2; 1 µM compound 3c): 918.6 ± 47.48 pmol/mg protein/min
- apparent Vmax of ENT2 (ENT2; 10 µM compound 3c): 534.6 ± 28.21 pmol/mg protein/min
- mode of inhibition of ENT2-mediated uridine transport (ENT2; [1]): non-competitive inhibitor
- Ki (ENT2; [2]): 540 nM
